The term IC50 denotes the concentration needed to halve the response being measured.

Series [1] has as its system RAW264.7. Nature of the series: Antiinflammatory activity in mouse RAW264.7 cells assessed as inhibition of LPS-induced NO production pretreated for 30 mins followed by LPS stimulation for 24 hrs by Griess assay. The format is functional, cell-based. For orientation: Griess reagent forms a coloured azo dye with nitrite.
The test system of series [2] is RAW264.7. Nature of the series: Cytotoxicity against mouse RAW264.7 cells assessed as reduction in cell viability by MTT assay. The series is classed as cell-based. (Tetrazolium dyes change colour on reduction, which living cells bring about.)

For the molecule `O=C(OC[C@H]1O[C@@H](Oc2c(-c3ccc(O)c(O)c3)oc3cc(O)cc(O)c3c2=O)[C@H](O)[C@@H](O)[C@H]1O)c1ccc(O)cc1`, in the series with RAW264.7 [1], the IC50 worked out at 20 µM. Further, the Activity result with RAW264.7 [2] is “Non-Toxic”.
